Data set [1] has as its system dopamine transporter protein over the norepinephrine transporter protein. To be noted: selectivity for DAT over NET; cited from earlier work.
For data set [2] the following is noted: cited from earlier work.

In general, melting point refers to the temperature, or range, at which the solid turns liquid. On to `CN1Cc2cc(-c3ccoc3)ccc2C(c2ccccc2)C1` (stereo not drawn), for which the melting point is 188 to 189 °C (dec.).

For the compound `COC(=O)C(c1ccccc1)C1CCCCN1` (stereo not drawn) [Methylphenidate], the “DAT/NET Ki ratio” value in data set [1] is 0.1.

With `CN1Cc2c(N)cccc2C(c2ccccc2)C1` (stereo not drawn) [Nomofensine®], the “side effect of long term administration” value in data set [2] is reported as “fatal immune hemolytic anemia”.

These data come from patent US20060111395A1, “Aryl-and heteroaryl-substituted tetrahydroisoquinolines and use thereof to block reuptake of norepinephrine, dopamine and serotonin” (AMR Technology, Inc., priority 2004, published 2006).
